Results on 6 compounds are retold here after US20090317496A1, “Method for Preventing and Treating the Disease Caused by Vascular Damage and the Use Thereof” (priority 2005, published 2009).

The test system of test [1] is retinal vascular endothelial cell. As to the kind of experiment: MTT assay, apoptosis of retinal vascular endothelial cell caused by the lack of serum. The note with it: FBS free medium, 10 μg/ml, 24 hours; FIG. 3c. Format: cell-based, human. Here is the method:
(§1) The HUVEC (human umbilical venous endothelial cell) and retinal vascular endothelial cell (cell-systems, USA) were incubated at M199 medium containing 20% (w/v) FBS (HyClone, Canada), 100 units/m ? of penicillin (Invitrogen, USA), 100 μg/m ? of streptomycin (Invitrogen, USA), 3 ng/m ? of bFGF (basic fibroblast growth factor, Upstate Biotechnology, USA) and 5 units/m ? of heparin (Life Technologies, USA) under 5% CO2 gas condition at 37° C. (See FIG. 2a and FIG. 2b).
(§2) To investigate the suppression effect of SG was determined by (3-[4,5-dimethylthiazol-2-yl]-2,5-diphenyl tetrazolium bromide (MTT) assay method disclosed in the literature (Wang Z et al., Biol., Pharm. Bull., 24, pp 159-162, 2001).
(§3) HUVEC and retinal vascular endothelial cell were spread on 24-well plates (3×10^4 cells/well) and were incubated for 24 hours. The mediums were substituted with new medium containing 20% (w/v) FBS and FBS free medium respectively. The FBS free medium was treated with various concentrations of SG, i.e., 0, 1, 5, 10, 20 μg/m ? . The medium was incubated for 24 hours. After the incubation, MTT assay was performed.
(§4) To investigate the suppressive effect of SG, Rb1, Rg1, Re, Rg3, Rg5 and Rk1 on the cell apoptosis if retinal vascular endothelial cell caused by the lack of serum, the effect were determined by (3-[4,5-dimethylthiazol-2-yl]-2,5-diphenyl tetrazolium bromide (MTT) assay method disclosed in the literature (Wang Z et al., Biol., Pharm. Bull., 24, pp 159-162, 2001).
(§5) HUVEC and retinal vascular endothelial cell were spread on 24-well plates (3×10^4 cells/well) and were incubated for 24 hours respectively. The mediums were substituted with new medium containing 20% (w/v) FBS and FBS free medium respectively. The FBS free medium was treated with 10 μg/m ? of SG, Rb1, Rg1, Re, Rg3, Rg5 and Rk1 and the medium was incubated for 24 hours. After the incubation, MTT assay was performed.
(Formazan colour is commonly taken as a measure of viable cells.)

The test system of test [2] is HUVEC (human umbilical venous endothelial cell). As to the kind of experiment: MTT assay, apoptosis of HUVEC caused by the lack of serum. The note with it: FBS free medium, 10 μg/ml, 24 hours; FIG. 3c. Format: cell-based. The protocol: as §1, §2, §3, §4, §5
In test [3] the test system is vascular endothelial cells (HUVEC). As to the kind of experiment: DAPI staining, DNA fragmentation of vascular endothelial cell caused by the lack of serum. Format: cell-based, human. To be noted: FBS free medium, Rk1 0, 0.5, 1, 5, 10 μg/ml, 24 hours; FIG. 5. The protocol:
FIG. 5 is the result of staining with DAPI showing suppressive effect of Rk1 on the apoptosis of HUVEC in medium,
Vascular endothelial cell were spread on 35 mm dish (1.5×10^5 cells/well) and were incubated for 24 hours. The mediums were substituted with new medium containing 20% (w/v) FBS and FBS free medium respectively. The FBS free medium was treated with various concentrations of Rk1, i.e., 0, 0.5, 1, 5, 10 μg/m ? and incubated for 24 hours. After the incubation, the medium was washed with PBS solution 2 times, fixed with 2% of paraformaldehyde and washed with PBS solution 2 times again. DAPI (4′,6-Diamidino-2-phenylindole-2-HCl. Calbiochem, USA) solution was added thereto, incubated for 30 minutes in darkroom and washed with PBS two times. The DNA fragmentation was measured by fluorescent microscope (Fluorescent microscope, Axioplan2, ZEISS, Germany) after mounting with cover slip.

The test system is the same in test [4]. As to the kind of experiment: MTT assay, Rk1 on apoptosis of vascular endothelial cell caused by the lack of serum. Format: cell-based, human. To be noted: FBS free medium, Rk1 0, 0.5, 1, 5, 10 μg/ml, 24 hours; FIG. 4. Here is the method: FIG. 4 is the result of MTT assay showing suppressive effect of Rk1 on the apoptosis of HUVEC in medium,
Vascular endothelial cell were spread on 24-well plates (3×10^4 cells/well) and were incubated for 24 hours. The mediums were substituted with new medium containing 20% (w/v) FBS and FBS free medium respectively. The FBS free medium was treated with various concentrations of Rk1, i.e., 0, 0.5, 1, 5, 10 μg/m ? and incubated for 24 hours. After the incubation, MTT assay was performed.

Test [5] relates to tight junction proteins ZO-1, ZO-2 and occludin. In words: Western blot of tight junction proteins in human retinal vascular endothelial cells. The note with it: human retinal endothelial cell, FIG. 6a. Format: cell-based. Here is the method:
Human retinal vascular endothelial cell were spread on 60 mm dish (3×10^5 cells/well) and were incubated for 24 hours.
The cells were transferred to human endothelial SFM-basal growth medium (Invitrogen, USA), incubated for 24 hours and transferred to new human endothelial SFM-basal growth medium again. The medium was treated with 20 ng/m ? of VEGF (vascular endothelial growth factor) and Rk1, and incubated for 6 hours. After the incubation, the cells were collected to induce lysis and western blot analysis was performed.

For test [6] the test system is unchanged. As to the kind of experiment: Western blot of tight junction proteins in mouse retina. Format: in vivo, C57/BL6 mice. The note with it: FIG. 6b.
Test [7] deals with tight junction protein ZO-1, ZO-2 and occludin. In words: Immunocytochemistry of tight junction proteins in mouse retina. Format: in vivo, C57/BL6 mice.
Test [8] shares this test system. In words: Immunocytochemistry of tight junction proteins in human retinal vascular endothelial cells. Format: cell-based. The note with it: human retinal endothelial cell. The protocol:
Human retinal vascular endothelial cell were spread on 35 mm dish (2×10^5 cells/well) and were incubated for 24 hours. The cells were transferred to human endothelial SFM-basal growth medium (Invitrogen, USA), incubated for 24 hours and transferred to new human endothelial SFM-basal growth medium again. The medium was treated with 20 ng/m ? of VEGF (vascular endothelial growth factor) and Rk1, and incubated for 6 hours. After the incubation, the medium was washed with PBS solution and immunocytochemistry analysis was performed to determine the change of tight junction protein.

The test system of test [9] is retinal vessel of C57/BL6 mice. As to the kind of experiment: Angiography with FITC-dextran, permeability of retinal vessel. Format: in vivo. To be noted: FIG. 11. The protocol: Both of 100 ng of VEGF and 30 μg of Rk1 were injected into the retina of C57/BL6 mice (Orient, Korea). After 24 hours, the mice were anesthetized and FITC-dextran was injected into the heart to allow fluorescent material to flow in blood. […] In the only VEGF-injected mice, it has been confirmed that the fluorescent material was exuded from neighboring tissues around blood vessel caused by the increased permeability of retinal vessel however the exudation in VEGF was recovered by the treatment of Rk1.
Likewise, it has been also confirmed that the fluorescent material was exuded from neighboring tissues around blood vessel caused by the increased permeability of retinal vessel in diabetes induced mice however the exudation was recovered by the treatment of Rk1.

Consider `CC(C)=CCC[C@](C)(O[C@@H]1O[C@H](CO[C@@H]2O[C@H](CO)[C@@H](O)[C@H](O)[C@H]2O)[C@@H](O)[C@H](O)[C@H]1O)[C@H]1CC[C@]2(C)[C@@H]1[C@H](O)C[C@@H]1[C@@]3(C)CC[C@H](O[C@@H]4O[C@H](CO)[C@@H](O)[C@H](O)[C@H]4O[C@@H]4O[C@H](CO)[C@@H](O)[C@H](O)[C@H]4O)C(C)(C)[C@@H]3CC[C@]12C` [Rb1, ginsenoside Rb1, reference compound], for which, in test [1], the “apoptosis and cell viability of retinal vascular endothelial cells (MTT assay)” value is recorded as “did not”.
With `CC(C)=CCC[C@](C)(O[C@@H]1O[C@H](CO)[C@@H](O)[C@H](O)[C@H]1O)[C@H]1CC[C@]2(C)[C@@H]1[C@H](O)C[C@@H]1[C@@]3(C)CC[C@H](O)C(C)(C)[C@@H]3[C@@H](O[C@@H]3O[C@H](CO)[C@@H](O)[C@H](O)[C@H]3O[C@@H]3O[C@@H](C)[C@H](O)[C@@H](O)[C@H]3O)C[C@]12C` [Re, ginsenoside Re, reference compound], the “apoptosis and cell viability of retinal vascular endothelial cells (MTT assay)” value in test [1] is “did not”.
On to `CC(C)=CCC[C@](C)(O[C@@H]1O[C@H](CO)[C@@H](O)[C@H](O)[C@H]1O)[C@H]1CC[C@]2(C)[C@@H]1[C@H](O)C[C@@H]1[C@@]3(C)CC[C@H](O)C(C)(C)[C@@H]3[C@@H](O[C@@H]3O[C@H](CO)[C@@H](O)[C@H](O)[C@H]3O)C[C@]12C` [Rg1, ginsenoside Rg1, reference compound], for which the “apoptosis and cell viability of retinal vascular endothelial cells (MTT assay)” value in [1] is on record as “did not”.
Turning to `CC(C)=CCC[C@](C)(O)[C@H]1CC[C@]2(C)[C@@H]1[C@H](O)C[C@@H]1[C@@]3(C)CC[C@H](O[C@@H]4O[C@H](CO)[C@@H](O)[C@H](O)[C@H]4O[C@@H]4O[C@H](CO)[C@@H](O)[C@H](O)[C@H]4O)C(C)(C)[C@@H]3CC[C@]12C` [Rg3, ginsenoside Rg3], the “apoptosis and cell viability of retinal vascular endothelial cells (MTT assay)” value in test [1] is listed as “inhibited the apoptosis”. Also, the “apoptosis and cell viability of HUVEC (MTT assay)” value in test [2] is listed as “inhibited the apoptosis”.
For `CC(C)=CC/C=C(\C)[C@H]1CC[C@]2(C)[C@@H]1[C@H](O)C[C@@H]1[C@@]3(C)CC[C@H](O[C@@H]4O[C@H](CO)[C@@H](O)[C@H](O)[C@H]4O[C@@H]4O[C@H](CO)[C@@H](O)[C@H](O)[C@H]4O)C(C)(C)[C@@H]3CC[C@]12C` [Rg5, ginsenoside Rg5], the “apoptosis and cell viability of retinal vascular endothelial cells (MTT assay)” value in test [1] is on record as “inhibited the apoptosis”. For the same compound, the “apoptosis and cell viability of HUVEC (MTT assay)” value in [2] is listed as “inhibited the apoptosis”.
Take `C=C(CCC=C(C)C)[C@H]1CC[C@]2(C)[C@@H]1[C@H](O)C[C@@H]1[C@@]3(C)CC[C@H](O[C@@H]4O[C@H](CO)[C@@H](O)[C@H](O)[C@H]4O[C@@H]4O[C@H](CO)[C@@H](O)[C@H](O)[C@H]4O)C(C)(C)[C@@H]3CC[C@]12C` [Rk1, ginsenoside Rk1]: in test [3], the “DNA fragmentation of vascular endothelial cells (DAPI)” value was “suppressed the DNA fragmentation”. Also, the “apoptosis and cell viability of vascular endothelial cells (MTT assay)” value in test [4] was “inhibited the apoptosis”. The “apoptosis and cell viability of retinal vascular endothelial cells (MTT assay)” value in test [1] was “inhibited the apoptosis”. The “recovering effect on the decrease of tight junction proteins ZO-1, ZO-2 and occludin (western blot)” value in [5] (decrease caused by AGE (advanced glycation end product)) was “potent recovering effect”; in [5] (decrease caused by VEGF 20 ng/ml, 6 hours), “potent recovering effect”; in test [6] (decrease caused by VEGF 100 ng, 30 μg Rk1 injected into the retina, 24 hours, mouse) it was “potent recovering effect”; in test [6] (decrease caused by diabetes, mouse retina) it was “potent recovering effect”. Also, the “apoptosis and cell viability of HUVEC (MTT assay)” value in test [2] is given as “inhibited the apoptosis”. The “recovering effect on the decrease of tight junction protein ZO-1, ZO-2 and occludin (immunocytochemistry)” value is “potent recovering effect” in test [7] (decrease caused by VEGF 100 ng, 30 μg Rk1 injected into the retina, 24 hours, mouse, FIG. 9); “potent recovering effect” in [7] (decrease caused by diabetes, mouse retina, FIG. 10); “potent recovering effect” in test [8] (decrease caused by AGE, FIG. 7); “potent recovering effect” in [8] (decrease caused by VEGF 20 ng/ml, 6 hours, FIG. 8). The “exudation of fluorescent material (increased permeability of retinal vessel), angiography” value in [9] (VEGF 100 ng and 30 μg Rk1 injected into the retina, 24 hours, mouse) is “recovered”; in test [9] (diabetes induced mice), “recovered”.
